# Reference: publication PMC9217908, “Screening of commonly prescribed drugs for effects on the CAT1-mediated transport of L-arginine and arginine derivatives” (Amino Acids, 2022)
# Where two headings read alike, the source gives them in different places.
# Assays:
# Experiment in all cases: cell-based
# [1] = target: T1, CAT1 (cationic amino acid transporter 1, CAT1/SLC7A1) (Homo sapiens, UniProt P30825); set-up: species or system HEK-CAT1 (HEK293 stably transfected); Inhibition of net CAT1-mediated [3H]-L-arginine (100 uM) uptake, 5 min, scintillation counting, vector control subtracted; conditions: HEK293, L-arginine 100 uM as substrate; for inhibition at 20 µM: read-out: % Inhibition of L-arginine uptake at 20 µM; for inhibition at 200 µM: read-out: % Inhibition of L-arginine uptake at 200 µM
# T1 construct: full-length human transporter stably transfected in HEK cells (HEK-CAT1); net uptake against HEK-VC vector control cells
# T1 sequence (P30825 whole entry): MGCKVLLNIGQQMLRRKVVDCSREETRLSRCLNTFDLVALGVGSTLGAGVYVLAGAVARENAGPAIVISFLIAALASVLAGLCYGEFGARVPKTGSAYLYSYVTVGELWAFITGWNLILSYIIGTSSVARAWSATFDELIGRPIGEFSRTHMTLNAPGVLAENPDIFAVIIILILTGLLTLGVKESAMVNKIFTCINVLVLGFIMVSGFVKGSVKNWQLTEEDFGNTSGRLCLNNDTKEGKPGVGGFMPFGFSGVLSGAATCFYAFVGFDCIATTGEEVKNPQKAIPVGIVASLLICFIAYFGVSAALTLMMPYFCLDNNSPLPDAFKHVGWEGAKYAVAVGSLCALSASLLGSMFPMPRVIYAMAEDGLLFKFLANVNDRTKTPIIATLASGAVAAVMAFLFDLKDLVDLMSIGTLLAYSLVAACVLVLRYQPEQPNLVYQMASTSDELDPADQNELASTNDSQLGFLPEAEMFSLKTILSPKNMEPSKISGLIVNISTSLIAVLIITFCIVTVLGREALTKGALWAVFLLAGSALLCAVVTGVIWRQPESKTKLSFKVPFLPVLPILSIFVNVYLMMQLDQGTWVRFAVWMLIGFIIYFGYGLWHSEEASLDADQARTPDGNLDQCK
# Method: (§1) Uptake and inhibition assays using HEK-CAT1 and HEK-VC cells and L-arginine, L-homoarginine, and ADMA as substrates were performed using the protocol described (Strobel et al. [2012]; Chafai et al. [2017]). Briefly, after incubation, the supernatant was replaced with transport buffer containing [^3H]- L-arginine for 5 min and 2.5 min for medium containing [^3H]-L-homoarginine or [^3H]-ADMA with or without the test compound. The reference drugs were screened at concentrations of 20 µM (Figs. 1A, 2A, and 3A) and 200 µM (Figs. 1B, 2B, and 3B). […] The net uptake was determined by subtracting the total amount taken up by control cells from the amount taken up by CAT1-expressing cells, which was expressed as a percentage of the amount taken up by the control. To determine the inhibitory effects of the drugs on CAT1-mediated transport of L-arginine, L-homoarginine, or ADMA, the control was measured in the absence of the potential inhibitor. The value for the percent inhibition was calculated as: Inhibition (%) = 100 – (V/V0 ^* 100), where V and V0 are the net uptake rates (uptake into HEK-CAT1 cells—uptake into HEK-VC cells) with and without test drugs, respectively. […] Each bar represents the effect of one compound on CAT1-mediated L-arginine (100 μM) uptake as percent inhibition. Data were obtained from at least two independent experiments performed in triplicate (n = 6–9) and each test data from the independent experiment were normalized to the respective control data to get the value of percent inhibition. Negative inhibition values indicate stimulated CAT1-mediated uptake. Data were analyzed using one-way ANOVA and Dunnett’s multiple comparison test with p < 0.05. Bars showing a statistically significant inhibition or transport stimulation are shaded in black
# [2] = target: T1, CAT1 (cationic amino acid transporter 1, CAT1/SLC7A1); set-up: species or system HEK-CAT1 (HEK293 stably transfected); Inhibition of net CAT1-mediated [3H]-ADMA (1 uM) uptake, 2.5 min, scintillation counting, vector control subtracted; conditions: HEK293, ADMA 1 uM as substrate; for inhibition at 20 µM: read-out: % Inhibition of ADMA uptake at 20 µM; for inhibition at 200 µM: read-out: % Inhibition of ADMA uptake at 200 µM
# Method: as §1, with “ADMA (1” for “L-arginine (100”
# [3] = target: T1, CAT1 (cationic amino acid transporter 1, CAT1/SLC7A1); set-up: species or system HEK-CAT1 (HEK293 stably transfected); Inhibition of net CAT1-mediated [3H]-L-homoarginine (1 uM) uptake, 2.5 min, scintillation counting, vector control subtracted; conditions: HEK293, L-homoarginine 1 uM as substrate; for inhibition at 20 µM: read-out: % Inhibition of L-homoarginine uptake at 20 µM; for inhibition at 200 µM: read-out: % Inhibition of L-homoarginine uptake at 200 µM
# Method: as §1, with “L-homoarginine (1” for “L-arginine (100”
inhibition at 20 µM [1] [%],inhibition at 200 µM [1] [%],inhibition at 20 µM [2] [%],inhibition at 200 µM [2] [%],inhibition at 20 µM [3] [%],inhibition at 200 µM [3] [%],Compound
-4.3 ± 7.3,-14.9 ± 17.8,-7.4 ± 5.9,14.4 ± 4.6,-4.8 ± 6.8,-12.7 ± 0.8,C[C@H]1O[C@@H](O[C@H]2[C@@H](O)C[C@H](O[C@H]3[C@@H](O)C[C@H](O[C@H]4CC[C@@]5(C)[C@H](CC[C@@H]6[C@@H]5C[C@@H](O)[C@]5(C)[C@@H](C7=CC(=O)OC7)CC[C@]65O)C4)O[C@@H]3C)O[C@@H]2C)C[C@H](O)[C@@H]1O [Digoxin]
-7.3 ± 7.7,29.3 ± 2.5,8.5 ± 4.3,9.1 ± 7.7,8.6 ± 4.3,29 ± 2.6,COc1ccc([C@@H]2Sc3ccccc3N(CCN(C)C)C(=O)[C@@H]2OC(C)=O)cc1 [Diltiazem]
9.7 ± 4.1,6.2 ± 0.6,3.1 ± 6,9.9 ± 3.1,9.7 ± 4.1,9.6 ± 1.4,C[C@H]1c2cccc(O)c2C(=O)C2=C(O)[C@]3(O)C(=O)C(C(N)=O)=C(O)[C@@H](N(C)C)[C@@H]3[C@@H](O)[C@@H]21 [Doxycycline]
9.9 ± 8.3,-1.5 ± 1.6,27.2 ± 2.1,5.3 ± 1.8,12.7 ± 4.6,-9.5 ± 1.2,CCOC(=O)[C@H](CCc1ccccc1)N[C@@H](C)C(=O)N1CCC[C@H]1C(=O)O [Enalapril]
-28.9 ± 4.8,-15.8 ± 5.9,-4.1 ± 6,9.9 ± 3.1,-28.5 ± 4.8,-15.1 ± 1.6,C[C@@H](O)[C@H]1C(=O)N2C(C(=O)O)=C(S[C@@H]3CN[C@H](C(=O)Nc4cccc(C(=O)O)c4)C3)[C@H](C)[C@H]12 [Ertapenem]
7.4 ± 5.9,-10.5 ± 3.3,-1.6 ± 3.4,-35.3 ± 0.8,8.2 ± 5.4,-10.1 ± 0.5,C#C[C@]1(O)CC[C@H]2[C@@H]3CCc4cc(O)ccc4[C@H]3CC[C@@]21C [Ethinylestradiol]
0.7 ± 3.8,-20.7 ± 2.9,-17.2 ± 13.5,-22.8 ± 2.2,-5.4 ± 2.1,31.8 ± 4.3,Cc1ccc(-c2ncc(Cl)cc2-c2ccc(S(C)(=O)=O)cc2)cn1 [Etorixocib]
-2.2 ± 5.9,-39.2 ± 1.4,-7.4 ± 4.4,3.6 ± 2.1,-9.6 ± 2.8,-18.2 ± 1,CCOC(=O)C1=C(C)NC(C)=C(C(=O)OC)C1c1cccc(Cl)c1Cl (stereo not drawn) [Felodipine]
16.3 ± 6.6,13.1 ± 2,-4.8 ± 2.1,0.2 ± 3.2,10.1 ± 2.9,8.9 ± 0.4,CC(C)OC(=O)C(C)(C)Oc1ccc(C(=O)c2ccc(Cl)cc2)cc1 [Fenofibrate]
-29.4 ± 8.1,-24.6 ± 1,0.5 ± 3.9,-43.9 ± 4.9,-27 ± 6.7,-15.1 ± 0.6,C[C@]12CCC(=O)C=C1CC[C@H]1[C@@H]3CC[C@](O)(C(=O)CO)[C@@]3(C)C[C@H](O)[C@@]12F [Fludrocortisone]
46.5 ± 8.5,26 ± 1.5,-2.4 ± 2,-18.8 ± 7.8,-4.4 ± 5.2,25.6 ± 1.2,CNCCC(Oc1ccc(C(F)(F)F)cc1)c1ccccc1 (stereo not drawn) [Fluoxetine]
13.9 ± 3.4,14 ± 9.6,16.8 ± 2.5,8.1 ± 2.1,12.4 ± 2.8,10.1 ± 3,COc1ccc(Cl)cc1C(=O)NCCc1ccc(S(=O)(=O)NC(=O)NC2CCCCC2)cc1 [Glibenclamide]
6 ± 3.9,20.7 ± 14.1,5.5 ± 2.2,9.9 ± 3.5,8.5 ± 4.8,7.9 ± 1.2,NS(=O)(=O)c1cc2c(cc1Cl)NCNS2(=O)=O [Hydrochlorothiazide]
8.5 ± 4.8,-4.3 ± 2.7,-0.1 ± 2.8,-9.9 ± 2.7,13.9 ± 9.6,-9.5 ± 2.6,C[C@]12CCC(=O)C=C1CC[C@@H]1[C@@H]2[C@@H](O)C[C@@]2(C)[C@H]1CC[C@]2(O)C(=O)CO [Hydrocortisone]
-5.1 ± 3.6,-33.7 ± 1.4,-20.2 ± 5.9,-44.8 ± 7.4,-7.5 ± 2.1,-26.1 ± 0.6,CC(C)Cc1ccc(C(C)C(=O)O)cc1 (stereo not drawn) [Ibuprofen]
-8.2 ± 5.2,-42.8 ± 0.3,11.2 ± 3.4,20.7 ± 14.1,-24.9 ± 2.1,-20.9 ± 1.1,Cc1ccc(NC(=O)c2ccc(CN3CCN(C)CC3)cc2)cc1Nc1nccc(-c2cccnc2)n1 [Imatinib]

Compound,inhibition at 20 µM [1] [%],inhibition at 200 µM [1] [%],inhibition at 20 µM [2] [%],inhibition at 200 µM [2] [%],inhibition at 20 µM [3] [%],inhibition at 200 µM [3] [%]
C[C@H]1O[C@@H](O[C@H]2[C@@H](O)C[C@H](O[C@H]3[C@@H](O)C[C@H](O[C@H]4CC[C@@]5(C)[C@H](CC[C@@H]6[C@@H]5CC[C@]5(C)[C@@H](C7=CC(=O)OC7)CC[C@]65O)C4)O[C@@H]3C)O[C@@H]2C)C[C@H](O)[C@@H]1O [Digitoxin],-7.2 ± 8.2,-14.1 ± 4.2,4.3 ± 3.3,21.5 ± 2.5,-7.2 ± 2.7,-12.6 ± 2.5
CNCC[C@H](Oc1cccc2ccccc12)c1cccs1 [Duloxetine],6.1 ± 7.4,12.6 ± 2.6,1.9 ± 5.4,-14.2 ± 4.9,7.6 ± 6.5,11.9 ± 3.1
